The values that follow come from patent publication US7632829B2, “Diazepan derivatives” (Hoffmann-La Roche Inc., priority 2006, dated 2009).

The target in the assay is T1, human chemokine receptor 2 isoform B (Homo sapiens, UniProt P41597).
T1 construct: host or cells: CHOK1-CCR2B-A5 (CHO-K1)
T1 sequence (P41597 1-360 isoform P41597-2): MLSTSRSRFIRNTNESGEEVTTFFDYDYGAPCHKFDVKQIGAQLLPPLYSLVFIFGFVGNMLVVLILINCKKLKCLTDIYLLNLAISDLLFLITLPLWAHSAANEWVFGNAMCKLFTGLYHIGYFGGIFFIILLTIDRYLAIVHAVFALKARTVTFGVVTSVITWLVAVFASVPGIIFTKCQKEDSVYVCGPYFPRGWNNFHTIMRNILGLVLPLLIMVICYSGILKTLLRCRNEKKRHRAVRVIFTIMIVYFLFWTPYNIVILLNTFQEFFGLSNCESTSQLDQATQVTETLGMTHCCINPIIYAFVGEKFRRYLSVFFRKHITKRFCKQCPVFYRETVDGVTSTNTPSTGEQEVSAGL
As to the kind of experiment: Calcium mobilization assay (FLIPR, CHOK1-CCR2B-A5 cells, 20 nM MCP-1). Type of assay: cell-based. As to conditions: Ca mobilisation assay, CCR2, antagonist activity vs 20 nM MCP-1. The essentials: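 FLIPR Fluo-4 calcium readout in CHO-K1 cells stably overexpressing human CCR2B; compounds first monitored 80 s for agonist activity, then after 20-30 min at 30 °C challenged with 20 nM MCP-1. Response is max minus basal fluorescence; antagonist value is concentration giving 50% inhibition of specific calcium increase.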
In general terms: Calcium flux is commonly read through the fluorescence of an indicator in the cells.
As for “4-[3-(4-Methyl-4-hydroxy-piperidin-1-yl)-propyl]-1-[(E)-3-(3,4-dichloro-phenyl)-acryloyl]-[1,4]diazepan-5-one [Example 76]”, the IC50 worked out at 219 nM.
For `CC1CCN(CCCN2CCN(C(=O)C=Cc3ccc(Cl)c(Cl)c3)CCC2=O)CC1O` (single isomer, unassigned) [Example 260, 1-[(E)-3-(3,4-Dichloro-phenyl)-acryloyl]-4-[3-((−, cis)-3-hydroxy-4-methyl-piperidin-1-yl)-propyl]-[1,4]diazepan-5-one], the half-inhibitory concentration (IC50) is 9 nM.
The figure for `CC1(O)CCCN(CCCN2CCN(C(=O)/C=C/c3ccc(F)c(Cl)c3)CCC2=O)C1` (racemic) [Example 205] is 325 nM; for `O=C(C=Cc1ccc(Cl)c(Cl)c1)N1CCC(=O)N(CCCCN2CCC(O)C(F)C2)CC1` (mixture of isomers) [Example 434, (rac,trans)-1-[(E)-3-(3,4-Dichloro-phenyl)-acryloyl]-4-[4-(3-fluoro-4-hydroxy-piperidin-1-yl)-butyl]-[1,4]diazepan-5-one] it is 140 nM.
With `O=C(/C=C/c1ccc(Cl)c(Cl)c1)N1CCC(=O)N(CC(O)CN2CCC3(CC3)C(O)C2)CC1` (racemic) [Example 309, (rac)-1-[(E)-3-(3,4-Dichloro-phenyl)-acryloyl]-4-[2-hydroxy-3-(4-hydroxy-6-aza-spiro[2.5]oct-6-yl)-propyl]-[1,4]diazepan-5-one], the IC50 worked out at 16 nM.
As for `CC1CCN(CCCN2CCN(C(=O)C=Cc3ccc(Cl)c(F)c3)CCC2=O)CC1O` (single isomer, unassigned) [Example 492, 1-[(E)-3-(4-Chloro-3-fluoro-phenyl)-acryloyl]-4-[3-((−,cis)-3-hydroxy-4-methyl-piperidin-1-yl)-propyl]-[1,4]diazepan-5-one], the figure is 26 nM.
As for `C[C@@H]1CN(CC(O)CN2CCN(C(=O)C=Cc3ccc(Cl)c(Cl)c3)CCC2=O)CC[C@@H]1O` (mixture of isomers) [Example 318], the IC50 is 707 nM.
The figure for `CC1(O)CCCN(CCCN2CCN(C(=O)/C=C/c3ccc(Cl)c(Cl)c3)CCC2=O)C1` (racemic) [Example 232] is 91 nM.
`COC(=O)NC1CCN(CCCN2CCN(C(=O)/C=C/c3ccc(F)c(Cl)c3)CCC2=O)CC1` [Example 201]: the IC50 came to 656 nM.
The figure for `C[C@@H]1CCN(CC(O)CN2CCN(C(=O)/C=C/c3ccc(Cl)c(Cl)c3)CCC2=O)C[C@H]1O` (mixture of isomers) [Example 315, (rac)-1-[(E)-3-(3,4-Dichloro-phenyl)-acryloyl]-4-[2-hydroxy-3-(trans-3-hydroxy-4-methyl-piperidin-1-yl)-propyl]-[1,4]diazepan-5-one] is 717 nM.
Turning to `COCC1(C)CCCN(CCCCN2CCN(C(=O)/C=C/c3ccc(Cl)c(Cl)c3)CCC2=O)C1` (racemic) [Example 446], the IC50 came out at 626 nM.
Regarding `O=C(/C=C/c1ccc(F)c(Cl)c1)N1CCC(=O)N(CCCCN2CCC(O)C2)CC1` (racemic) [Example 393], the concentration for half-maximal inhibition (IC50) is 878 nM.
With `O=C(/C=C/c1ccc(Cl)c(Cl)c1)N1CCC(=O)N(CCCN2CCC(O)(Cc3ccccc3)CC2)CC1` [Example 49, 4-[(E)-3-(4-Benzyl-4-hydroxy-piperidin-1-yl)-propyl]-1-[(E)-3-(3,4-dichloro-phenyl)-acryloyl]-[1,4]diazepan-5-one], the IC50 was 510 nM.
Turning to `O=C(/C=C/c1ccc(Cl)c(Cl)c1)N1CCC(=O)N(CCCN2CCCC2)CC1` [Example 46, 1-[(E)-3-(3,4-Dichloro-phenyl)-acryloyl]-4-(3-pyrrolidin-1-yl-propyl)-[1,4]diazepan-5-one], the IC50 is 333 nM.
In the case of `O=C(/C=C/c1ccc(Cl)c(Cl)c1)N1CCC(=O)N(CCC(O)CN2CCCC(O)C2)CC1` (racemic) [Example 171, (rac)-1-[(E)-3-(3,4-Dichloro-phenyl)-acryloyl]-4-[3-hydroxy-4-(3-hydroxy-piperidin-1-yl)-butyl]-[1,4]diazepan-5-one], the IC50 amounted to 995 nM.
In the case of `COC[C@H]1CCN(CCCCN2CCN(C(=O)/C=C/c3ccc(Cl)c(Cl)c3)CCC2=O)C[C@H]1O` (racemic) [Example 469], the IC50 was 61 nM.
For the molecule `O=C(/C=C/c1ccc(Cl)c(Cl)c1)N1CCC(=O)N(CC[C@H](O)CN2CCCCC2)CC1` [Example 178, 1-[(E)-3-(3,4-Dichloro-phenyl)-acryloyl]-4-((S)-3-hydroxy-4-piperidin-1-yl-butyl)-[1,4]diazepan-5-one], the IC50 is 201 nM.
On to `C[C@@]1(CO)CCN(CCCCN2CCN(C(=O)/C=C/c3ccc(Cl)c(Cl)c3)CCC2=O)C[C@H]1O` [Example 474], for which the IC50 is 106 nM.
For `O=C(/C=C/c1cccc(Cl)c1)N1CCC(=O)N(CCN2CCC(c3ccc(F)cc3)CC2)CC1` [Example 33, 1-[(E)-3-(3-Chloro-phenyl)-acryloyl]-4-[3-(4-(4-fluoro-phenyl)-piperidin-1-yl)-ethyl]-[1,4]diazepan-5-one], the IC50 is 343 nM.
Take `O=C(/C=C/c1ccc(Cl)c(Cl)c1)N1CCC(=O)N(CC(O)CN2CCCC(O)C2)CC1` (racemic) [Example 281]: the IC50 came out at 129 nM.
Turning to `CC1(C)CCN(C[C@H](O)CN2CCN(C(=O)/C=C/c3ccc(Cl)c(Cl)c3)CCC2=O)CC1O` (stereo partly drawn) [Example 334, 1-[(E)-3-(3,4-Dichloro-phenyl)-acryloyl]-4-[(S)-2-hydroxy-3-(3-hydroxy-4,4-dimethyl-piperidin-1-yl)-propyl]-[1,4]diazepan-5-one], the IC50 was 4 nM.
Consider `CC1CN(CCCCN2CCN(C(=O)/C=C/c3ccc(F)c(Cl)c3)CCC2=O)CCC1O` (racemic) [Example 400], for which the IC50 was determined as 264 nM.
As for `O=C(/C=C/c1ccc(Cl)c(Cl)c1)N1CCC(=O)N(CCCN2CCSCC2)CC1` [Example 51, 1-[(E)-3-(3,4-Dichloro-phenyl)-acryloyl]-4-(3-thiomorpholin-4-yl-propyl)-[1,4]diazepan-5-one], the IC50 stood at 46 nM.
Regarding `O=C(/C=C/c1ccc(Cl)c(Cl)c1)N1CCC(=O)N(CCN[C@@H]2CCCC[C@H]2O)CC1` (racemic) [Example 355], the IC50 turned out to be 982 nM.
On to `O=C(/C=C/c1ccc(Cl)c(Cl)c1)N1CCC(=O)N(CC[C@@H](O)CN2CCCCC2)CC1` [Example 172, 1-[(E)-3-(3,4-Dichloro-phenyl)-acryloyl]-4-((R)-3-hydroxy-4-piperidin-1-yl-butyl)-[1,4]diazepan-5-one], for which the IC50 is 105 nM.
As for `O=C(/C=C/c1ccc(Cl)c(Cl)c1)N1CCC(=O)N(CCCN2CCC(N3CCNC3=O)CC2)CC1` [Example 56, 1-[(E)-3-(3,4-Dichloro-phenyl)-acryloyl]-4-{3-[4-(2-oxo-imidazolidin-1-yl)-piperidin-1-yl]-propyl}-[1,4]diazepan-5-one], the figure is 1080 nM; as for `CC(C)N1CCN(CCCN2CCN(C(=O)/C=C/c3ccc(Cl)c(Cl)c3)CCC2=O)CC1C` (racemic) [Example 246, (rac)-1-[(E)-3-(3,4-Dichloro-phenyl)-acryloyl]-4-[3-(4-isopropyl-3-methyl-piperazin-1-yl)-propyl]-[1,4]diazepan-5-one], 421 nM; as for `C[C@@H]1C[C@H](O)CN(C[C@H](O)CCN2CCN(C(=O)/C=C/c3ccc(F)c(Cl)c3)CCC2=O)C1` [Example 502], 253 nM.
On to `O=C(/C=C/c1ccc(F)c(Cl)c1)N1CCC(=O)N(CCCN2CCC(O)CC2)CC1` [Example 196], for which the half-maximal inhibitory concentration (IC50) was found to be 864 nM.
Turning to `O=C1NC(=O)C2(CCN(CCCN3CCN(C(=O)/C=C/c4ccc(F)c(Cl)c4)CCC3=O)CC2)N1` [Example 194], the IC50 is 494 nM.
As to `CC1CCC(O)CN1CCCN1CCN(C(=O)/C=C/c2ccc(Cl)c(Cl)c2)CCC1=O` (racemic) [Example 272], the IC50 was found to be 191 nM.
As to `CC1(C)CCN(CCCN2CCN(C(=O)/C=C/c3ccc(F)c(Cl)c3)CCC2=O)CC1O` (racemic) [Example 223], the IC50 was found to be 13 nM.
Regarding `CC(C)CN1CCN(CCCCN2CCN(C(=O)/C=C/c3ccc(Cl)c(Cl)c3)CCC2=O)CC1` [Example 465], the IC50 is 376 nM.
The figure for `O=C(/C=C/c1ccc(F)c(Cl)c1)N1CCC(=O)N(CCCCN2CCC(CO)CC2)CC1` [Example 386] is 380 nM; for `CC1(C)CCN(CCCCN2CCN(C(=O)/C=C/c3ccc(Cl)c(F)c3)CCC2=O)CC1O` (racemic) [Example 420] it is 52 nM; for `CC1(CO)CCCN1CCCN1CCN(C(=O)/C=C/c2ccc(Cl)c(Cl)c2)CCC1=O` (racemic) [Example 255] it is 561 nM.
Consider `CC1(CO)CCN(CC(O)CN2CCN(C(=O)/C=C/c3ccc(Cl)c(Cl)c3)CCC2=O)CC1` (racemic) [Example 319], for which the IC50 stood at 265 nM.
The figure for `O=C(/C=C/c1ccc(Cl)c(Cl)c1)N1CCC(=O)N(CCCCN2CCC[C@H](O)[C@@H]2CO)CC1` (racemic) [Example 480] is 53 nM; for `COC(=O)NC1CCN(CC(O)CCN2CCN(C(=O)/C=C/c3ccc(Cl)c(Cl)c3)CCC2=O)CC1` (racemic) [Example 364] it is 531 nM.
On to `O=C(/C=C/c1ccc(F)c(F)c1)N1CCC(=O)N(CCCN2CCC3(CC3)C(O)C2)CC1` (centres unmarked) [Example 495], for which the 50% inhibitory concentration (IC50) amounted to 19 nM.
In the case of `O=C(/C=C/c1ccc(Cl)c(Cl)c1)N1CCC(=O)N(CCCN2CCC(C(F)(F)F)CC2)CC1` [Example 72, 1-[(E)-3-(3,4-Dichloro-phenyl)-acryloyl]-4-[3-(4-trifluoromethyl-piperidin-1-yl)-propyl]-[1,4]diazepan-5-one], the IC50 turned out to be 312 nM.

As usually defined, the IC50 is the concentration at which inhibition is half-maximal.
